# Source: patent US12599672B2, “KRAS proteolysis targeting chimeras” (PAQ Therapeutics Inc., priority 2023, dated 2026)
# Columns and labels:
# KRAS G12D = target: T1, KRAS G12D (Homo sapiens, UniProt P01116, G12D); test: KRAS G12D HiBit assay; format: cell-based; details: AsPc-1-KRAS (G12D)-HiBit-KI cell, compound treatment for 24 hours; for DC50: absolute DC50
# T1 construct: AsPc-1-KRAS (G12D)-HiBit-KI cell (Pharmaron); host or cells: AsPc-1-KRAS (G12D)-HiBit-KI cells (HiBiT knock-in at the endogenous KRAS locus)
# Method: Day 1. […] Allowed cells to reach approximately 80% confluence before splitting. Rinsed cultivated cells in T-75 flasks with 5 mL PBS (Solarbio, P1020-500). […] Inactivated trypsin by adding excessive serum containing medium. Harvested the cells from flask into cell culture medium and counted the cell number.
# Day 2. Test compounds were dissolved at 0.3 mM in DMSO (Solarbio, D8371) as stock solution. […] Performed 3-fold, 10-points dilution via transferring 15 μL compound into 30 μL DMSO by using TECAN liquid handler (TECAN, Freedom EVO200).
# Day 3. After compound treatment for 24 hours, removed the plate from incubators and equilibrated at room temperature for 15 minutes. Prepared the HiBit reagent (Promega, N3040) by mixing 10 mL of Nano-Glo®-HiBiT Lytic Buffer with 200 μL of Nano-Glo®-HiBiT Lytic Substrate and 100 μL of LgBiT Protein. Added 20 μL of HiBit reagent into each well of the cell plate and spun the plates at room temperature at 1,000 RPM for 1 minute.
# The inhibition activity was calculated using the following formula:
# (§1) [formula] where HC (high control) is obtained from cells treated with 0.1% DMSO only.
# KRAS G12V = target: T2, KRAS G12V (Homo sapiens, UniProt P01116, G12V); test: KRAS G12V HiBit assay; format: cell-based; details: SW620-KRAS (G12V)-HiBit-KI cells, compound treatment for 24 hours, class symbols
# T2 construct: SW620-KRAS (G12V)-HiBit-KI cell (Pharmaron); host or cells: SW620-KRAS (G12V)-HiBit-KI cells (HiBiT knock-in at the endogenous KRAS locus)
# Method: Day 1. […] Rinsed cultivated cells in T-75 flasks with 5 mL PBS (Solarbio, P1020-500). […] Inactivated trypsin by adding excessive serum containing medium. Harvested the cells from flask into cell culture medium and counted the cell number.
# Day 2. Test compounds were dissolved at 0.3 mM in DMSO (Solarbio, D8371) as stock solution. […] Performed 3-fold, 10-points dilution via transferring 15 μL compound into 30 μL DMSO by using TECAN liquid handler (TECAN, Freedom EVO200). […] After compound treatment for 24 hours, the plate was removed from incubators and equilibrated at room temperature for 15 minutes. Prepare the HiBit reagent (Promega, N3040) by mixing 10 mL of Nano-Glo®-HiBiT Lytic Buffer with 200 μL of Nano-Glo®-HiBiT Lytic Substrate and 100 μL of LgBiT Protein. Added 20 μL of HiBit reagent into each well of the cell plate and spun the plates at room temperature at 1,000 RPM for 1 minute.
# The degradation activity was calculated using the following formula:
# as §1
# T1 sequence (P01116 1-188 isoform P01116-2 G12D): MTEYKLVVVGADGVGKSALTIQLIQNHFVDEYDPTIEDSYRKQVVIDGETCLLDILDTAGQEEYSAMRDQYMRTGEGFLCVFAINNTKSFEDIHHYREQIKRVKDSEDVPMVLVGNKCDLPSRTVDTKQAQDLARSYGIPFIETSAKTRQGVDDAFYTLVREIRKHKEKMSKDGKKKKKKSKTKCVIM
# T2 sequence (P01116 1-188 isoform P01116-2 G12V): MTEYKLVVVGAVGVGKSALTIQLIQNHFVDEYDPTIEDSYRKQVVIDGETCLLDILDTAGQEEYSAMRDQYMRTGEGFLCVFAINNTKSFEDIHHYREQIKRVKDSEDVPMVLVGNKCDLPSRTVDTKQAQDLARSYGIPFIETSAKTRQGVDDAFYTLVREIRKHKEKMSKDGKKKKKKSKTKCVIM
DC50 (KRAS G12D; class symbols),Dmax (KRAS G12D; class symbols),DC50 (KRAS G12V),DC50 (KRAS G12D; numeric bounds given in place of class symbols),SMILES
< 100 nM,–,> 100 nM,–,C#Cc1c(F)ccc2cc(O)cc(-c3ncc4c(N5CCC[C@@](C)(O)C5)nc(OCC5(CN6CCC(CN7CCC(c8ccc9c(c8)n(C)c(=O)n9C8CCC(=O)NC8=O)CC7)CC6)CC5)nc4c3F)c12 (stereo partly shown) [Compound 47]
> 300 nM,–,> 100 nM,–,C#Cc1c(F)ccc2cccc(-c3ncc4c(N5CCC[C@@](C)(O)C5)nc(OCC5(CN6CCN(C7CCN(c8ccc9c(c8)n(C)c(=O)n9C8CCC(=O)NC8=O)CC7)CC6)CC5)nc4c3F)c12 (stereo partly shown) [Compound 53]
< 100 nM,–,> 100 nM,–,C#Cc1c(F)ccc2cccc(-c3ncc4c(N5CCC[C@@](C)(O)C5)nc(OCC5(CN6CCC(N7CCC(c8ccc9c(C%10CCC(=O)NC%10=O)nn(C)c9c8)CC7)CC6)CC5)nc4c3F)c12 (stereo partly shown) [Compound 57]
< 100 nM,–,> 100 nM,–,C#Cc1c(F)ccc2cccc(-c3ncc4c(N5CCC[C@@](C)(O)C5)nc(OCC5(CN6CCC(CN7CCC(c8cccc9c8n(C)c(=O)n9C8CCC(=O)NC8=O)CC7)CC6)CC5)nc4c3F)c12 (stereo partly shown) [Compound 60]
< 100 nM,–,> 100 nM,–,C#Cc1c(F)ccc2cc(O)cc(-c3ncc4c(N5CCC[C@@](C)(O)C5)nc(OCC5(CN6CCC(CN7CCC(c8cccc9c8n(C)c(=O)n9C8CCC(=O)NC8=O)CC7)CC6)CC5)nc4c3F)c12 (stereo partly shown) [Compound 65]
> 300 nM,–,> 100 nM,–,C#Cc1c(F)ccc2cccc(-c3ncc4c(N5CCC[C@@](C)(O)C5)nc(OCC5(CN6CCC7(CC6)CC(N6CCN(c8cccc9c8n(C)c(=O)n9C8CCC(=O)NC8=O)CC6)C7)CC5)nc4c3F)c12 (stereo partly shown) [Compound 70]
< 100 nM,–,< 10 nM,–,C#Cc1c(F)ccc2cc(O)cc(-c3ncc4c(N5CCC[C@@](C)(O)C5)nc(OCC5(CN6CCC(CN7CCN(c8cccc9c8n(C)c(=O)n9C8CCC(=O)NC8=O)CC7)CC6)CC5)nc4c3F)c12 (stereo partly shown) [Compound 72]
> 300 nM,–,> 100 nM,–,C#Cc1c(F)ccc2cccc(-c3ncc4c(N5CCC[C@@](C)(O)C5)nc(OCC5(CN6CCC(CN7CCN(c8cccc9c8n(C)c(=O)n9C8CCC(=O)NC8=O)CC7)CC6)CC5)nc4c3F)c12 (stereo partly shown) [Compound 73]
> 300 nM,–,> 100 nM,–,C#Cc1c(F)ccc2cccc(-c3ncc4c(N5CCC[C@@](C)(O)C5)nc(OCC5(CN6CCC(N7CCC(c8cccc9c8n(C)c(=O)n9C8CCC(=O)NC8=O)CC7)CC6)CC5)nc4c3F)c12 (stereo partly shown) [Compound 74]

# Further lines, the molecule ahead of its results:
SMILES,DC50 (KRAS G12D; class symbols),Dmax (KRAS G12D; class symbols),DC50 (KRAS G12V),DC50 (KRAS G12D; numeric bounds given in place of class symbols)
"C#Cc1c(F)ccc2cccc(-c3ncc4c(N5CCC[C@@](C)(O)C5)nc(OC[C@@]56CCCN5[C@H](COC(=O)N5CCC(CN7CCC(c8ccc9c(c8)n(C)c(=O)n9C8CCC(=O)NC8=O)CC7)CC5)CC6)nc4c3F)c12 (stereo partly drawn) [Compound 3, [(3S,8S)-8-[[7-(8-Ethynyl-7-fluoro-1-naphthyl)-8-fluoro-4-[(3R)-3-hydroxy-3-methyl-1-piperidyl]pyrido[4,3-d]pyrimidin-2-yl]oxymethyl]-1,2,3,5,6,7-hexahydropyrrolizin-3-yl]methyl 4-[[4-[1-(2,6-dioxo-3-piperidyl)-3-methyl-2-oxo-benzimidazol-5-yl]-1-piperidyl]methyl]piperidine-1-carboxylate]",< 100 nM,> 50%,> 100 nM,–
C#Cc1c(F)ccc2cc(O)cc(-c3ccc4c(N5CCC[C@@](C)(O)C5)nc(OCC5(CN6CCC(CN7CCN(c8ccc9c(c8)n(C)c(=O)n9C8CCC(=O)NC8=O)CC7)CC6)CC5)nc4c3F)c12 (stereo partly shown) [Compound 12],< 100 nM,–,> 100 nM,–
C#Cc1c(F)ccc2cc(O)cc(-c3ncc4c(N5CCCCCC5)nc(OCC5(CN6CCN(CC7CCN(c8ccc9c(c8)n(C)c(=O)n9C8CCC(=O)NC8=O)CC7)CC6)CC5)nc4c3F)c12 (stereo not shown) [Compound 16],< 100 nM,> 50%,> 100 nM,–
"C#Cc1c(F)ccc2cc(O)cc(-c3ncc4c(N5CCCC(F)(F)C5)nc(OCC5(CN6CCN(CC7CCN(c8ccc9c(c8)n(C)c(=O)n9C8CCC(=O)NC8=O)CC7)CC6)CC5)nc4c3F)c12 (stereo not shown) [Compound 17, 3-(5-(4-((4-((1-(((4-(3,3-Difluoropiperidin-1-yl)-7-(8-ethynyl-7-fluoro-3-hydroxynaphthalen-1-yl)-8-fluoropyrido[4,3-d]pyrimidin-2-yl)oxy)methyl)cyclopropyl)methyl)piperazin-1-yl)methyl)piperidin-1-yl)-3-methyl-2-oxo-2,3-dihydro-1H-benzo[d]imidazol-1-yl) piperidine-2,6-dione]",< 100 nM,> 50%,> 100 nM,–
"C#Cc1c(F)ccc2cc(O)cc(-c3ncc4c(N5CCOCC5)nc(OCC5(CN6CCN(CC7CCN(c8ccc9c(c8)n(C)c(=O)n9C8CCC(=O)NC8=O)CC7)CC6)CC5)nc4c3F)c12 (stereo not shown) [Compound 18, 3-[5-[4-[[4-[[1-[[7-(8-Ethynyl-7-fluoro-3-hydroxy-1-naphthyl)-8-fluoro-4-morpholino-pyrido[4,3-d]pyrimidin-2-yl]oxymethyl]cyclopropyl]methyl]piperazin-1-yl]methyl]-1-piperidyl]-3-methyl-2-oxo-benzimidazol-1-yl]piperidine-2,6-dione]",> 300 nM,15 to 50%,> 100 nM,–
C#Cc1c(F)ccc2cc(O)cc(-c3ncc4c(N5CCC[C@@](C)(O)C5)nc(OCC5(CN6CCC(CN7CCN(c8ccc9c(c8)n(C)c(=O)n9C8CCC(=O)NC8=O)CC7)CC6)CC5)nc4c3F)c12 (stereo partly shown) [Compound 25],< 100 nM,–,< 10 nM,–
C#Cc1c(F)ccc2cc(O)cc(-c3ncc4c(N5CCC[C@@](C)(O)C5)nc(OCC5(CN6CCN(CCN7CCN(c8ccc9c(c8)n(C)c(=O)n9C8CCC(=O)NC8=O)CC7)CC6)CC5)nc4c3F)c12 (stereo partly shown) [Compound 28],< 100 nM,–,> 100 nM,–
C#Cc1c(F)ccc2cc(O)cc(-c3ncc4c(N5CCC[C@@](C)(O)C5)nc(OCC5(CN6CCC7(CC6)CN(c6ccc8c(c6)n(C)c(=O)n8C6CCC(=O)NC6=O)C7)CC5)nc4c3F)c12 (stereo partly shown) [Compound 33],> 300 nM,–,> 100 nM,–
C#Cc1c(F)ccc2cc(O)cc(-c3ncc4c(N5CCC[C@@](C)(O)C5)nc(OCC5(CN6CCN(Cc7ccc8c(c7)n(C)c(=O)n8C7CCC(=O)NC7=O)CC6)CC5)nc4c3F)c12 (stereo partly shown) [Compound 42],> 300 nM,–,> 100 nM,–
C#Cc1c(F)ccc2cccc(-c3ncc4c(N5CCC[C@@](C)(O)C5)nc(OCC5(CN6CCC(CN7CCN(c8ccc9c(c8)C(=O)N(C8CCC(=O)NC8=O)C9=O)CC7)CC6)CC5)nc4c3F)c12 (stereo partly shown) [Compound 49],–,–,> 100 nM,> 160 nM
C#Cc1c(F)ccc2cc(O)cc(-c3ncc4c(N5CCC[C@@](C)(O)C5)nc(OCC5(CN6CC7(C6)CN(c6ccc8c(c6)n(C)c(=O)n8C6CCC(=O)NC6=O)C7)CC5)nc4c3F)c12 (stereo partly shown) [Compound 51],< 100 nM,–,> 100 nM,–
C#Cc1c(F)ccc2cc(O)cc(-c3ncc4c(N5CCC[C@@](C)(O)C5)nc(OCC5(CN6CCN(Cc7cccc8c7n(C)c(=O)n8C7CCC(=O)NC7=O)CC6)CC5)nc4c3F)c12 (stereo partly shown) [Compound 63],> 300 nM,–,> 100 nM,–
C[C@H]1CN(CCOCCOCCOc2cccc3c2n(C)c(=O)n3C2CCC(=O)NC2=O)CCCN1c1nccc(-c2noc([C@@]3(C)CCCc4sc(N)c(C#N)c43)n2)n1 (stereo partly shown) [Compound 220],–,–,> 100 nM,–
C[C@H]1CN(CCOCCOc2cccc3c2n(C)c(=O)n3C2CCC(=O)NC2=O)CCCN1c1nccc(-c2noc([C@@]3(C)CCCc4sc(N)c(C#N)c43)n2)n1 (stereo partly shown) [Compound 221],–,–,> 100 nM,–
"CCc1c(F)ccc2cc(O)cc(-c3ncc4c(N5CCC[C@@](C)(O)C5)nc(OC[C@@]56CCCN5[C@H](COC(=O)N5CCC7(CC5)CC(N5CCC(c8ccc9c(c8)n(C)c(=O)n9C8CCC(=O)N(C)C8=O)CC5)C7)CC6)nc4c3F)c12 (stereo partly drawn) [Compound 491, ((3S,7aS)-7a-(((7-(8-ethyl-7-fluoro-3-hydroxynaphthalen-1-yl)-8-fluoro-4-((R)-3-hydroxy-3-methylpiperidin-1-yl)pyrido[4,3-d]pyrimidin-2-yl)oxy)methyl)hexahydro-1H-pyrrolizin-3-yl)methyl 2-(4-(3-methyl-1-(1-methyl-2,6-dioxopiperidin-3-yl)-2-oxo-2,3-dihydro-1H-benzo[d]imidazol-5-yl)piperidin-1-yl)-7-azaspiro[3.5]nonane-7-carboxylate]",–,–,> 100 nM,–
